Calls of active or inactive are those of the source. No cut-off for these calls is given here.
Assays:
T47D [1] = experiment: Agonistic activity in T47D human breast carcinoma cell proliferation assay; Not active; type: functional, cell-based
Progesterone receptor [2] = molecular target: T1, Progesterone receptor (Oryctolagus cuniculus, UniProt P06186); experiment: Binding affinity determined by ability to displace [3H]R5020 radioligand using uterine progesterone receptor obtained from estrogen-primed rabbit
T1 sequence (P06186 whole entry): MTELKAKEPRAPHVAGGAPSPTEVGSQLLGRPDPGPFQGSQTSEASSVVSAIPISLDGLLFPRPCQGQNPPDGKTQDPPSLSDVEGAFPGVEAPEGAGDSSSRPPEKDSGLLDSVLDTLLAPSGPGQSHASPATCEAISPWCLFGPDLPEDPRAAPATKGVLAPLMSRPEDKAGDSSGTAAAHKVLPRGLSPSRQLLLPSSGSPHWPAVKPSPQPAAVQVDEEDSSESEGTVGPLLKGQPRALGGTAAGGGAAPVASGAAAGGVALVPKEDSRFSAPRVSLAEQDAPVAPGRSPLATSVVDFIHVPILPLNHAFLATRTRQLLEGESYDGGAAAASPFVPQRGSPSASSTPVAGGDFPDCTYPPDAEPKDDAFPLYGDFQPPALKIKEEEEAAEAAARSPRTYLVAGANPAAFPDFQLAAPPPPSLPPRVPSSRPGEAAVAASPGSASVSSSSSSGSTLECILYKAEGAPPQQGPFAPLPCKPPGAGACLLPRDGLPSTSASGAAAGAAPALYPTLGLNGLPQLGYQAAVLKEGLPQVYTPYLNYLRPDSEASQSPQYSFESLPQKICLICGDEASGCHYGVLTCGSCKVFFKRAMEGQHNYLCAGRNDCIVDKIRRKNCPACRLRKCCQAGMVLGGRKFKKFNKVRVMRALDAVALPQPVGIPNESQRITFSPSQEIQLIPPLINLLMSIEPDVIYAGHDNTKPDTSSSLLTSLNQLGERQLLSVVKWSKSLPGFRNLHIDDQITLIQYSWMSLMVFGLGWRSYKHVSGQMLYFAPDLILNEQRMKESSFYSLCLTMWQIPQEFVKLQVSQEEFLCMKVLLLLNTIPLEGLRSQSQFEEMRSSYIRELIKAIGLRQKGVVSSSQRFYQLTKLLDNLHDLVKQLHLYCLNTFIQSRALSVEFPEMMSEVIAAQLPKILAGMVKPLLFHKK

T47D [3] = experiment: Agonistic activity in T47D human breast carcinoma cell proliferation assay; type: functional
Progesterone receptor [4] = molecular target: T1, Progesterone receptor; experiment: Displacement of [3H]R5020 from uterine progesterone receptor of estrogen-primed rabbits; Not active
T47D [5] = experiment: Agonistic activity in T47D human breast carcinoma cell proliferation assay; Not active up to 10 uM; type: functional, cell-based
Progesterone receptor [6] = molecular target: T1, Progesterone receptor; experiment: Displacement of [3H]R5020 from uterine progesterone receptor of estrogen-primed rabbits; Not active up to 10 uM

Compound | IC50 (Progesterone receptor [2]) | SC200 (T47D [1]) | also measured
O=Cc1nn(-c2ccccc2)c2c1CCCC2Cc1cccc2ccccc12 (centres undefined) | 6 nM | – | SC200 (T47D [3]): 56 nM
O=Cc1nn(-c2ccc(F)cc2)c2c1CCCC2Cc1ccc(-c2ccccc2)cc1 (centres undefined) | 10000 nM | – | –
CC(C)(C)c1ccc(CC2CCCc3c(C=O)nn(-c4ccc(F)cc4)c32)cc1 (centres undefined) | 1000 nM | – | –
O=C(N/N=C/c1nn(-c2ccc(F)cc2)c2c1CCCC2Cc1cccc2ccccc12)c1ccccc1 (centres undefined) | > 10000 nM | – | SC200 (T47D [3]): 2265 nM
O=Cc1nn(-c2cccc(Cl)c2)c2c1CCCC2Cc1cccc2ccccc12 (centres undefined) | 69 nM | – | –
O=Cc1nn(-c2ccc(O)cc2)c2c1CCCC2Cc1cccc2ccccc12 (centres undefined) | – | – | IC50 (Progesterone receptor [4]): Not Active
Fc1ccc(-n2nc(CNCc3ccccc3)c3c2C(Cc2cccc4ccccc24)CCC3)cc1 (centres undefined) | 1380 nM | – | –
CC(C)c1ccc(CC2CCCc3c(C=O)nn(-c4ccc(F)cc4)c32)cc1 (centres undefined) | 2190 nM | – | –
O=Cc1nn(-c2ccc(F)cc2)c2c1CCCC2Cc1ccc2ccccc2c1 (centres undefined) | 56.4 nM | inactive | –
COc1cccc(CC2CCCc3c(C=O)nn(-c4ccc(F)cc4)c32)c1 (centres undefined) | 16.8 nM | – | SC200 (T47D [3]): 417 nM
O=Cc1nn(-c2ccc(F)cc2)c2c1CCCC2Cc1ccc(F)cc1 (centres undefined) | 6.5 nM | – | SC200 (T47D [3]): 27 nM
Fc1ccc(-n2nc(C3OCCO3)c3c2C(Cc2cccc4ccccc24)CCC3)cc1 (centres undefined) | 97 nM | – | –
O=C(NCc1ccccc1)c1nn(-c2ccc(F)cc2)c2c1CCCC2Cc1cccc2ccccc12 (centres undefined) | > 10000 nM | – | –
CCCCCCCC(=O)OCc1nn(-c2ccc(F)cc2)c2c1CCCC2Cc1cccc2ccccc12 (centres undefined) | 4010 nM | inactive | –
COc1ccc(CC2CCCc3c(C=O)nn(-c4ccc(F)cc4)c32)cc1 (centres undefined) | 163 nM | – | –
O=Cc1nn(-c2ccc(F)cc2)c2c1CCCC2Cc1ccccc1 (centres undefined) | 3 nM | – | SC200 (T47D [3]): 22 nM
COc1ccc(CC2CCCc3c(C=O)nn(-c4ccc(F)cc4)c32)cc1OC (centres undefined) | 1890 nM | – | –
O=Cc1nn(-c2ccc(F)cc2)c2c1CCCC2Cc1ccc(F)c(F)c1 (centres undefined) | 2 nM | – | SC200 (T47D [3]): 81 nM
O=Cc1nn(-c2ccc(F)cc2)c2c1CCCC2Cc1ccccc1Cl (centres undefined) | 10.5 nM | – | SC200 (T47D [3]): 100 nM
CCCCOC(=O)c1ccc(-n2nc(C=O)c3c2C(Cc2cccc4ccccc24)CCC3)cc1 (centres undefined) | 851 nM | inactive | –
Fc1ccc(-n2nc(/C=N/c3ccccc3)c3c2C(Cc2cccc4ccccc24)CCC3)cc1 (centres undefined) | 2.3 nM | – | SC200 (T47D [3]): 185 nM
Cc1ccc(CC2CCCc3c(C=O)nn(-c4ccc(F)cc4)c32)cc1 (centres undefined) | 7.7 nM | – | SC200 (T47D [3]): 275 nM
O=Cc1nn(-c2ccc(F)cc2)c2c1CCCC2Cc1ccc(Cl)cc1 (centres undefined) | 11.9 nM | inactive | –
COC(=O)c1ccc(-n2nc(C=O)c3c2C(Cc2cccc4ccccc24)CCC3)cc1 (centres undefined) | – | – | IC50 (Progesterone receptor [6]): Not Active
O=C(OCc1nn(-c2ccc(F)cc2)c2c1CCCC2Cc1cccc2ccccc12)c1ccccc1 (centres undefined) | 182 nM | inactive | –
O=S(=O)(N/N=C/c1nn(-c2ccc(F)cc2)c2c1CCCC2Cc1cccc2ccccc12)c1ccccc1 (centres undefined) | > 10000 nM | inactive | –
CCCCCCCCOC(=O)c1ccc(-n2nc(C=O)c3c2C(Cc2cccc4ccccc24)CCC3)cc1 (centres undefined) | > 10000 nM | inactive | –

More lines, main results first:

IC50 (Progesterone receptor [2]) | Compound | SC200 (T47D [1]) | also measured
41 nM | N#Cc1nn(-c2ccc(F)cc2)c2c1CCCC2Cc1cccc2ccccc12 (centres undefined) | inactive | –
236 nM | CC(O)c1nn(-c2ccc(F)cc2)c2c1CCCC2Cc1cccc2ccccc12 (centres undefined) | – | –
1760 nM | CC(=O)c1nn(-c2ccc(F)cc2)c2c1CCCC2Cc1cccc2ccccc12 (centres undefined) | – | –
5.3 nM | CC(=O)OC(OC(C)=O)c1nn(-c2ccc(F)cc2)c2c1CCCC2Cc1cccc2ccccc12 (centres undefined) | – | SC200 (T47D [3]): 72 nM
9 nM | O=Cc1nn(-c2ccc(Cl)cc2)c2c1CCCC2Cc1cccc2ccccc12 (centres undefined) | inactive | –
3000 nM | CCN(CC)C(=O)c1nn(-c2ccc(F)cc2)c2c1CCCC2Cc1cccc2ccccc12 (centres undefined) | – | –
90 nM | CCOC(=O)OCc1nn(-c2ccc(F)cc2)c2c1CCCC2Cc1cccc2ccccc12 (centres undefined) | inactive | –
49 nM | CN/N=C/c1nn(-c2ccc(F)cc2)c2c1CCCC2Cc1cccc2ccccc12 (centres undefined) | inactive | –
147 nM | C=Cc1nn(-c2ccc(F)cc2)c2c1CCCC2Cc1cccc2ccccc12 (centres undefined) | inactive | –
> 10000 nM | CC(=O)N/N=C/c1nn(-c2ccc(F)cc2)c2c1CCCC2Cc1cccc2ccccc12 (centres undefined) | – | –
1000 nM | CCC(=O)c1nn(-c2ccc(F)cc2)c2c1CCCC2Cc1cccc2ccccc12 (centres undefined) | – | –
1380 nM | CCN(CC)Cc1nn(-c2ccc(F)cc2)c2c1CCCC2Cc1cccc2ccccc12 (centres undefined) | – | –
690 nM | CCC(O)c1nn(-c2ccc(F)cc2)c2c1CCCC2Cc1cccc2ccccc12 (centres undefined) | – | –
3.2 nM | O=Cc1nn(-c2ccc(F)cc2)c2c1CCCC2Cc1cccc2ccccc12 (centres undefined) | – | SC200 (T47D [3]): 105 nM
12.7 nM | COc1ccc(-n2nc(C=O)c3c2C(Cc2cccc4ccccc24)CCC3)cc1 (centres undefined) | inactive | –
628 nM | O/N=C/c1nn(-c2ccc(F)cc2)c2c1CCCC2Cc1cccc2ccccc12 (centres undefined) | – | –
52 nM | OCc1nn(-c2ccc(F)cc2)c2c1CCCC2Cc1cccc2ccccc12 (centres undefined) | – | SC200 (T47D [5]): inactive
547 nM | CN(C)/N=C/c1nn(-c2ccc(F)cc2)c2c1CCCC2Cc1cccc2ccccc12 (centres undefined) | inactive | –
73 nM | CC(=O)OCc1nn(-c2ccc(F)cc2)c2c1CCCC2Cc1cccc2ccccc12 (centres undefined) | inactive | –
1570 nM | COC(=O)Nc1nn(-c2ccc(F)cc2)c2c1CCCC2Cc1cccc2ccccc12 (centres undefined) | – | –
